In US20150020915A1, “Antiperspirant Spray Devices and Compositions” (The Procter & Gamble Company, priority 2013, published 2015):

Description: (§1) Solubility may be determined by measuring the amount of light transmittance (a light transmittance value) through a simple mixture of the non-volatile silicone fluid and liquid activation enhancer at the same weight/weight concentrations as in a final antiperspirant composition.
as §1, with “Solubility of a liquid activation enhancer in a non-volatile silicone” for “Solubility”, “(light” for “(a light”
The Spectronic Genesys 10 V is utilizes a tungsten-halogen light source and has a spectral bandwidth of 5 nm, a wavelength range of 325 to 1100 nm, accuracy of ±1 nm and a repeatability of ±0.5 nm. Readouts include absorbance, transmittance and concentration. The spectrophotometer is set to 640 nm wavelength and the percent transmittance mode/readout. Polystyrene spectrometer cuvettes having a 1 cm optical light path and transmittance between ˜340 nm and ˜900 nm are used. One suitable example of a spectrometer cuvette is available from VWR International LLC under Catalog #97000-584 having a 2.5 to 4.5 ml capacity. The spectrophotometer is calibrated according to the manufacturer's instructions using a reference cuvette and composition comprised of just the non-volatile silicone fluid of interest. For example, if the test composition comprises 50 centistoke dimethicone and 15% w/w of isopropyl myristate, then the spectrometer is calibrated using a cuvette containing just 50 centistoke dimethicone. Sample cuvettes are filled sufficiently with a test composition of a non-volatile silicone fluid and liquid activation enhancer so that the light path of the spectrophotometer passes through the test composition in the cuvette. The sample cuvettes are shaken well just prior to taking a light transmittance reading.

Compound | light transmittance value | solubility in 50 centistoke dimethicone (in words)
CCCCCCCCCCCCCC(=O)OC(C)C [isopropyl myristate] | about 101% | 
CCCCCCCCCCC(CO)CCCCCCCC (centres unmarked) [octyldodecanol] |  | soluble in the 50 centistoke dimethicone at some (lower) concentrations
PPG-14 butyl ether |  | insoluble
mineral oil |  | soluble in 50 centistoke dimethicone at some (lower) concentrations

Continued, in another order:

light transmittance value | Compound | solubility in 50 centistoke dimethicone (in words)
about 100% | CCCCCCCCCCCCCCCCCC(=O)OCCCC [butyl stearate] | 
about 100% | CCCCCCCCCCCCCC(C)C [isohexadecane] | soluble
about 101% | CCCCCCCCCCCCCCCC(=O)OC(C)C [isopropyl palmitate] | 
